Data taken from ChEMBL document CHEMBL1201862, “PubChem BioAssay data set” (2004).
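Values below derive from 48-hour exposures of cells grown in 96-well plates, with endpoints linearly interpolated between the two concentrations bracketing the appropriate inhibition level. At the GI50, growth is halved.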 The source made the active and inactive calls. No stated cut-off is given here; in the data, active = GI50 up to about 1.1 µM and inactive = higher.

Key:
Assay in all cases: NCI tumour cell line growth inhibition, 48 h
UACC-62 = test system: UACC-62
MDA-N = test system: MDA-N
BT-549 = test system: BT-549
IGROV-1 = test system: IGROV-1
OVCAR-3 = test system: OVCAR-3
DU-145 = test system: DU-145
LOX IMVI = test system: LOX IMVI
CAKI-1 = test system: CAKI-1
HL-60 = test system: HL-60
NCI-H226 = test system: NCI-H226
SK-MEL-2 = test system: SK-MEL-2
SF-268 = test system: SF-268
MDA-MB-435 = test system: MDA-MB-435
HT-29 = test system: HT-29
NCI-H522 = test system: NCI-H522
OVCAR-8 = test system: OVCAR-8
COLO 205 = test system: COLO 205
EKVX = test system: EKVX
HCC 2998 = test system: HCC 2998
TK-10 = test system: TK-10

SMILES | GI50 (UACC-62) | GI50 (MDA-N) | GI50 (BT-549) | GI50 (IGROV-1) | GI50 (OVCAR-3) | GI50 (DU-145) | GI50 (LOX IMVI) | GI50 (CAKI-1) | GI50 (HL-60) | GI50 (NCI-H226) | GI50 (SK-MEL-2) | GI50 (SF-268) | GI50 (MDA-MB-435) | GI50 (HT-29) | GI50 (NCI-H522) | GI50 (OVCAR-8) | GI50 (COLO 205) | GI50 (EKVX) | GI50 (HCC 2998) | GI50 (TK-10)
COc1cc(C2C3=C(COC3=O)Oc3cc4c(cc32)OCO4)cc(OC)c1O (stereo not given) | < 0.01 µM (active) | < 0.01 µM (active) | 39.8 µM (inactive) | < 0.0121 µM (active) | 0.0127 µM (active) | 0.0157 µM (active) | < 0.0112 µM (active) | < 0.01 µM (active) | < 0.01 µM (active) | < 0.0118 µM (active) | 0.0101 µM (active) | 0.226 µM (active) | < 0.01 µM (active) | < 0.0147 µM (active) | < 0.01 µM (active) | < 0.0152 µM (active) | < 0.0133 µM (active) | 0.0207 µM (active) | < 0.0209 µM (active) | 0.589 µM (active)
COc1ccc(N2N=NN(C(C)C)/C2=C(/Cl)c2nnnn2-c2ccc(OC)cc2)cc1 | 14.4 µM (inactive) | 13.6 µM (inactive) | 15.6 µM (inactive) | 14.9 µM (inactive) | 9.62 µM (inactive) | 8.11 µM (inactive) | 2 µM (inactive) | 1.75 µM (inactive) | 2.45 µM (inactive) | 20.2 µM (inactive) | 13.4 µM (inactive) | 16.2 µM (inactive) | 12.6 µM (inactive) | 10.2 µM (inactive) | 2.76 µM (inactive) | 6.11 µM (inactive) | 3.72 µM (inactive) | 18.2 µM (inactive) | 19.5 µM (inactive) | 16.2 µM (inactive)
Cc1cn([C@@H]2O[C@H](CO[Si](C)(C)C(C)(C)C)[C@]3(O[C@H]3C(=O)NO)[C@H]2O[Si](C)(C)C(C)(C)C)c(=O)[nH]c1=O | 1.82 µM (inactive) | 1.58 µM (inactive) | 1.66 µM (inactive) | 1.71 µM (inactive) | 1.61 µM (inactive) | 1.89 µM (inactive) | 1.76 µM (inactive) | 2.07 µM (inactive) | 1.61 µM (inactive) | 1.94 µM (inactive) | 2.01 µM (inactive) | 1.62 µM (inactive) | 2.07 µM (inactive) | 1.53 µM (inactive) | 1.52 µM (inactive) | 1.79 µM (inactive) | 1.76 µM (inactive) | 1.84 µM (inactive) | 1.61 µM (inactive) | 2.29 µM (inactive)
CC(C)(CO)NC1=C(Cl)C(=O)c2c(O)ccc(O)c2C1=O | 1.35 µM (inactive) | 0.885 µM (active) | 0.942 µM (active) | 1.58 µM (inactive) | 1.55 µM (inactive) | 1.9 µM (inactive) | 0.45 µM (active) | 1.96 µM (inactive) | 0.233 µM (active) | 2.16 µM (inactive) | 2.32 µM (inactive) | 2.61 µM (inactive) | 1.15 µM (inactive) | 1.31 µM (inactive) | 0.316 µM (active) | 1.29 µM (inactive) | 1.22 µM (inactive) | 1.87 µM (inactive) | 1.43 µM (inactive) | 1.88 µM (inactive)
CC(=O)/C(=C/NC(=S)c1cccnc1)C(=O)Nc1ccccc1C | > 100 µM (inactive) | > 100 µM (inactive) | > 100 µM (inactive) | > 100 µM (inactive) | 82.6 µM (inactive) | > 100 µM (inactive) | > 100 µM (inactive) | 41.3 µM (inactive) | 2.37 µM (inactive) | > 100 µM (inactive) | > 100 µM (inactive) | > 100 µM (inactive) | > 100 µM (inactive) | > 100 µM (inactive) | 96.6 µM (inactive) | 52.6 µM (inactive) | > 100 µM (inactive) | > 100 µM (inactive) | > 100 µM (inactive) | > 100 µM (inactive)
C[C@@H](CN1CC(=O)NC(=O)C1)N1CC(=O)NC(=O)C1 [DEXRAZOXANE] | 147 µM (inactive) | 241 µM (inactive) | 230 µM (inactive) | 356 µM (inactive) | 224 µM (inactive) | 255 µM (inactive) | 236 µM (inactive) | 90.6 µM (inactive) | 51.1 µM (inactive) | 101 µM (inactive) | 246 µM (inactive) | 378 µM (inactive) | 395 µM (inactive) | 110 µM (inactive) | 67.8 µM (inactive) | 282 µM (inactive) | 12.5 µM (inactive) | 173 µM (inactive) | 473 µM (inactive) | 222 µM (inactive)
